Test results reported in patent US11053204B2, “Pyrimidinyloxy benzene derivatives as herbicides” (FMC Corporation, priority 2015, dated 2021).

Legend:
Format in all cases: in vivo
[1] = test system: ragweed (common ragweed, Ambrosia elatior); assay: Test A postemergence, visual injury rating; conditions: 0 to 100 scale, 0 is no effect, 100 is complete control, approximately 10 days
Procedure, shortened: (§1)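 Visual 0–100 rating (100 = complete control) taken about 10 d post-treatment relative to untreated checks. Preemergence: directed soil spray on sown loam/sand pots. Postemergence: seedlings 2–10 cm, 1–2 leaf. Non-phytotoxic solvent formulation with surfactant.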

[2] = test system: pigweed (Amaranthus retroflexus); assay: Test A postemergence, visual injury rating; conditions: 0 to 100 scale, 0 is no effect, 100 is complete control, approximately 10 days
Procedure, shortened: as §1

[3] = test system: barnyardgrass (Echinochloa crus-galli); assay: Test A postemergence, visual injury rating; conditions: 0 to 100 scale, 0 is no effect, 100 is complete control, approximately 10 days
Procedure, shortened: as §1

[4] = test system: galium (catchweed bedstraw, Galium aparine); assay: Test A postemergence, visual injury rating; conditions: 0 to 100 scale, 0 is no effect, 100 is complete control, approximately 10 days
Procedure, shortened: as §1

[5] = test system: Italian ryegrass (Lolium multiflorum); assay: Test A postemergence, visual injury rating; conditions: 0 to 100 scale, 0 is no effect, 100 is complete control, approximately 10 days
Procedure, shortened: as §1

[6] = test system: blackgrass (Alopecurus myosuroides); assay: Test A postemergence, visual injury rating; conditions: 0 to 100 scale, 0 is no effect, 100 is complete control, approximately 10 days
Procedure, shortened: as §1

[7] = test system: wheat (Triticum aestivum); assay: Test A postemergence, visual injury rating; conditions: 0 to 100 scale, 0 is no effect, 100 is complete control, approximately 10 days
Procedure, shortened: as §1

kochia (Kochia scoparia) [8] = assay: Test A postemergence, visual injury rating; conditions: 0 to 100 scale, 0 is no effect, 100 is complete control, approximately 10 days
Procedure, shortened: as §1

[9] = test system: giant foxtail (Setaria faberii); assay: Test A postemergence, visual injury rating; conditions: 0 to 100 scale, 0 is no effect, 100 is complete control, approximately 10 days
Procedure, shortened: as §1

corn (Zea mays) = assay: Test A postemergence, visual injury rating; conditions: 0 to 100 scale, 0 is no effect, 100 is complete control, approximately 10 days
Procedure, shortened: as §1

[10] = test system: ragweed (common ragweed, Ambrosia elatior); assay: Test A preemergence, visual injury rating
Procedure, shortened: as §1

[11] = test system: pigweed (Amaranthus retroflexus); assay: Test A preemergence, visual injury rating
Procedure, shortened: as §1

[12] = test system: barnyardgrass (Echinochloa crus-galli); assay: Test A preemergence, visual injury rating; conditions: for Plant response rating, Barnyardgrass: 31 g ai/ha, 0 to 100 scale, 0 no effect, 100 complete control; for Barnyardgrass plant response rating: 125 g ai/ha, 0 to 100 scale (0 no effect, 100 complete control)
Procedure, shortened: as §1

[13] = test system: Italian ryegrass (Lolium multiflorum); assay: Test A preemergence, visual injury rating
Procedure, shortened: as §1

kochia (Kochia scoparia) [14] = assay: Test A preemergence, visual injury rating
Procedure, shortened: as §1

[15] = test system: giant foxtail (Setaria faberii); assay: Test A preemergence, visual injury rating
Procedure, shortened: as §1

[16] = test system: barnyardgrass (Echinochloa crus-galli); assay: Test B flooded paddy test, plant response rating; conditions: 250 g ai/ha; Flood; scale of 0 to 100 where 0 is no effect and 100 is complete control; 13 to 15 days
Procedure, shortened: (§2)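 Greenhouse pots flooded to 3 cm above soil at time of treatment received compound via the water, which stayed at that level.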

[17] = test system: ducksalad (Heteranthera limosa); assay: Test B flooded paddy test, plant response rating; conditions: 250 g ai/ha; Flood; scale of 0 to 100 where 0 is no effect and 100 is complete control; 13 to 15 days
Procedure, shortened: as §2

[18] = test system: sedge, umbrella (small-flower umbrella sedge, Cyperus difformis); assay: Test B flooded paddy test, plant response rating; conditions: 250 g ai/ha; Flood; scale of 0 to 100 where 0 is no effect and 100 is complete control; 13 to 15 days
Procedure, shortened: as §2

rice (Oryza sativa) = assay: Test B flooded paddy test, plant response rating; conditions: 250 g ai/ha; Flood; scale of 0 to 100 where 0 is no effect and 100 is complete control; 13 to 15 days
Procedure, shortened: as §2

[19] = 31 g ai/ha, 0 to 100 scale, 0 no effect, 100 complete control
[20] = 125 g ai/ha, 0 to 100 scale (0 no effect, 100 complete control)

SMILES | Ragweed plant response rating ([1]; 31 g ai/ha) | Ragweed plant response rating ([1]; 125 g ai/ha) | Pigweed plant response rating ([2]; 31 g ai/ha) | Pigweed plant response rating ([2]; 125 g ai/ha) | Barnyardgrass plant response rating ([3]; 31 g ai/ha) | Barnyardgrass plant response rating ([3]; 125 g ai/ha) | Galium plant response rating ([4]; 31 g ai/ha) | Galium plant response rating ([4]; 125 g ai/ha) | Ryegrass, Italian plant response rating ([5]; 31 g ai/ha) | Ryegrass, Italian plant response rating ([5]; 125 g ai/ha) | Blackgrass plant response rating ([6]; 31 g ai/ha) | Blackgrass plant response rating ([6]; 125 g ai/ha) | Wheat plant response rating ([7]; 31 g ai/ha) | Wheat plant response rating ([7]; 125 g ai/ha) | Kochia plant response rating (kochia (Kochia scoparia) [8]; 125 g ai/ha) | Foxtail, Giant plant response rating ([9]; 31 g ai/ha) | Foxtail, Giant plant response rating ([9]; 125 g ai/ha) | Corn plant response rating (corn (Zea mays); 31 g ai/ha) | Corn plant response rating (corn (Zea mays); 125 g ai/ha) | Plant response rating, Ragweed [10, 19] | also measured
O=C(OCC(Cl)CCl)c1c(Br)cccc1Oc1ncc(Cl)cn1 (centres unmarked) [Compound 97] | 10 | 20 | 20 | 50 | 10 | 20 | 100 | 100 | 20 | 30 | 0 | 20 | 0 | 0 | 40 | 10 | 60 | 10 | 10 | 0 | Plant response rating, Ragweed [10, 20]: 0; Plant response rating, Pigweed [11, 19]: 0; Plant response rating, Pigweed [11, 20]: 20; Plant response rating, Barnyardgrass [12]: 0; Barnyardgrass plant response rating [12]: 10; Plant response rating, Ryegrass, Italian [13, 19]: 0; Plant response rating, Ryegrass, Italian [13, 20]: 0; Plant response rating, Kochia (kochia (Kochia scoparia) [14]; [19]): 0; Plant response rating, Kochia (kochia (Kochia scoparia) [14]; [20]): 0; Plant response rating, Foxtail, Giant [15, 19]: 40; Plant response rating, Foxtail, Giant [15, 20]: 70; Plant response rating, Barnyardgrass [16]: 0; Plant response rating, Ducksalad [17]: 70; Plant response rating, Sedge, Umbrella [18]: 75; Plant response rating, Rice (rice (Oryza sativa)): 0
CC(=NOCCC(F)(F)F)c1c(Br)cccc1Oc1ncc(Cl)cn1 [Compound 98] | 0 | 10 | 30 | 90 | 0 | 10 | 10 | 50 | 0 | 0 | 0 | 10 | 0 | 10 | 0 | 0 | 20 | 0 | 10 | 0 | Kochia plant response rating (kochia (Kochia scoparia) [8]; 31 g ai/ha): 0; Plant response rating, Ragweed [10, 20]: 0; Plant response rating, Pigweed [11, 19]: 0; Plant response rating, Pigweed [11, 20]: 0; Plant response rating, Barnyardgrass [12]: 0; Barnyardgrass plant response rating [12]: 30; Plant response rating, Ryegrass, Italian [13, 19]: 0; Plant response rating, Ryegrass, Italian [13, 20]: 0; Plant response rating, Kochia (kochia (Kochia scoparia) [14]; [19]): 0; Plant response rating, Kochia (kochia (Kochia scoparia) [14]; [20]): 0; Plant response rating, Foxtail, Giant [15, 19]: 0; Plant response rating, Foxtail, Giant [15, 20]: 40; Plant response rating, Barnyardgrass [16]: 0; Plant response rating, Ducksalad [17]: 0; Plant response rating, Sedge, Umbrella [18]: 0; Plant response rating, Rice (rice (Oryza sativa)): 0
Cc1cccc(Oc2ncc(Cl)cn2)c1C(=O)OCCC(F)(F)F [Compound 99] | 10 | 30 | 10 | 40 | 30 | 80 | 20 | 70 | 0 | 50 | 30 | 80 | 0 | 30 | 40 | 50 | 90 | 0 | 50 | 0 | Kochia plant response rating (kochia (Kochia scoparia) [8]; 31 g ai/ha): 20; Plant response rating, Ragweed [10, 20]: 10; Plant response rating, Pigweed [11, 19]: 50; Plant response rating, Pigweed [11, 20]: 90; Plant response rating, Barnyardgrass [12]: 70; Barnyardgrass plant response rating [12]: 100; Plant response rating, Ryegrass, Italian [13, 19]: 0; Plant response rating, Ryegrass, Italian [13, 20]: 30; Plant response rating, Kochia (kochia (Kochia scoparia) [14]; [19]): 40; Plant response rating, Kochia (kochia (Kochia scoparia) [14]; [20]): 80; Plant response rating, Foxtail, Giant [15, 19]: 90; Plant response rating, Foxtail, Giant [15, 20]: 100; Plant response rating, Barnyardgrass [16]: 60; Plant response rating, Ducksalad [17]: 100; Plant response rating, Sedge, Umbrella [18]: 90; Plant response rating, Rice (rice (Oryza sativa)): 40
